The source of these data is US4431652A, “4-Hydroxy-5-substituted-3(2H)-isothiazolone-1,1-dioxide derivatives useful in treating urinary tract calcium oxalate lithiasis” (Merck & Co., Inc., priority 1980, dated 1984).

pIC50: −log10 of the molar value.

In this experiment the target is T1, pig liver glycolate oxidase (Sus scrofa, UniProt I3LVF1).
T1 construct: The enzyme was pig liver glycolate oxidase; from tissue; host or cells: pig liver
T1 sequence (I3LVF1 1-370): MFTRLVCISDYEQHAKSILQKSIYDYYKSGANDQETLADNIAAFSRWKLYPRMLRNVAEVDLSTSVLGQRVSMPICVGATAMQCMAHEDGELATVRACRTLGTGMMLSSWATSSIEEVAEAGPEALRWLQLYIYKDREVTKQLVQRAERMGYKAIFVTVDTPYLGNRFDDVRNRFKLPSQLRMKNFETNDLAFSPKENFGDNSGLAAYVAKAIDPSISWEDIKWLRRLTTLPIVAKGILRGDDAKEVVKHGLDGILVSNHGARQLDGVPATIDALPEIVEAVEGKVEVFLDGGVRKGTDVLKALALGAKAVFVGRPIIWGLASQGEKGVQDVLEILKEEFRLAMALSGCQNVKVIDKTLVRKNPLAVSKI
Put plainly: Glycolate oxidase enzyme inhibition (rate of reduction of sodium 2,6-dichlorophenol-indophenol by sodium glycolate, 600 nm). The format is biochemical. The settings on record: 25° C., 0.10 M phosphate buffer, pH 7.0, 3 mM EDTA, 2×10^-4 M sodium glycolate, 5×10^-5 M sodium 2,6-dichlorophenol-indophenol, initial rates 1 to 3 min. How it is done:
The usefulness of the compounds of the present invention in treating urinary tract, especially renal, calcium oxalate lithiasis, was shown by the ability of these compounds to inhibit the glycolate oxidase enzyme. […] The activity of the enzyme, in turn, was measured by following the rate of reduction of sodium 2,6-dichlorophenol-indophenol by sodium glycolate in the presence of the enzyme. The enzyme was pig liver glycolate oxidase. The reaction was following spectrophotometrically at 600 nm. The assay was conducted at 25° C. in a 0.10 M phosphate buffer, pH 7.0, contining 3 mM EDTA. Initial substrate concentrations were 5×10^-5 M of sodium 2,6-dichlorophenol-indophenol and 2×10^-4 M of sodium glycolate. Reactions were initiated by the addition of enzyme. Initial rates during the period from 1 to 3 min. after the addition of enzyme were recorded on a Beckman Acta M-VI spectrophotometer. One control was run simultaneously with three test reactions, and all initial rates were adjusted to a common control rate. For further details of this procedure, see Randall et al., J. Med. Chem., 22, 6, 612 (1979).

By pIC50 is commonly meant −log10 of the IC50, conventionally taken in molar units. A high value points to a low IC50. Consider `O=C1NS(=O)(=O)C(c2csc(-c3ccc(Cl)c(Cl)c3)n2)=C1O` [5-[2-(3,4-Dichlorophenyl)thiazol-4-yl]-4-hydroxy-3(2H)-isothiazolone-1,1-dioxide], for which the pIC50 was 6.96. The result for `O=C1NS(=O)(=O)C(c2nc(-c3ccc(Cl)c(Cl)c3)cs2)=C1O` [5-[4-(3,4-Dichlorophenyl)thiazol-2-yl]-4-hydroxy-3(2H)-isothiazolone-1,1-dioxide] reads 6.22.
